# Test results reported in patent US11242340B2, “Crystal forms of demethyleneberberine hydrochloride and preparation method therefor” (priority 2018, dated 2022).
# Entries after “also recorded” stand apart in the source; their conditions may differ. Counter-ions that a name gives are not always drawn.
# Assays:
# [1] = Determination of blood concentration in rats after ig administration; type: in vivo; conditions: male SD rats, ig 200 mg/kg, plasma, hydrochloride
# Experimental: Male SD rats are adaptively bred for 3 days, and rats having (220±20) g body weight are selected and divided into 5 groups, namely, blank group, demethyleneberberine hydrochloride crystal form A group, demethyleneberberine hydrochloride crystal form B group, demethyleneberberine hydrochloride crystal form C group and demethyleneberberine hydrochloride crystal form D group. Food supply is stopped for 12 h for gastric emptying before the experiment. For the rats in the experimental groups, ig (intragastric) administration dosage is 200 mg/kg. 0.2 ml of blood is taken from the orbits of the rats at 5 min., 15 min., 30 min., 1 h, 2 h, 6 h and 12 h respectively after ig administration, the whole blood is centrifuged, and 100 μl of plasma is taken and frozen at −20° C. for use later. 100 μl of plasma sample is taken, 200 μl of methanol is added into the plasma sample, the mixture is vortexed for 5 min., and then centrifuged at 10,000 r/min. for 15 min. in a centrifuge; the supernatant is taken and tested by HPLC. […] Through calculation on the basis of the experimental results, it is determined: DAUC=3.675 μg×ml^−1×h>AAUC=1.247 μg×ml^−1×h>BAUC=1.150 μg×ml^−1×h>CAUC=1.077 μg×ml^−1×h.
# [2] = Solubility in ethanol system at different temperatures, HPLC; type: physicochemical; conditions: FIG. 15, hydrochloride
# Experimental: Demethyleneberberine hydrochloride crystals A, B, C and D are taken in an appropriate amount and the solubility of demethyleneberberine hydrochloride crystals A, B, C and D at different temperatures in an ethanol system is studied respectively. 20 μl of sample is taken at each temperature node and detected by HPLC.
# [3] = Solubility in water system at different temperatures, HPLC; type: physicochemical; conditions: hydrochloride
# Experimental: Demethyleneberberine hydrochloride crystals A, B, C and D are taken in an appropriate amount and the solubility of demethyleneberberine hydrochloride crystals A, B, C and D at different temperatures in a water system is studied respectively. 20 μl of sample is taken at each temperature node and detected by HPLC.
# [4] = Stability in high-temperature experiment (60±2° C.); type: physicochemical
# Experimental: Demethyleneberberine hydrochloride crystals A, B, C and D are taken in an appropriate amount and placed in plates numbered as A1, B1, C1 and D1 respectively, and then the plates are placed in a high-temperature environment at 60±2° C. respectively for stability test.
# [5] = Solubility in methanol system at different temperatures, HPLC; type: physicochemical; conditions: FIG. 14, hydrochloride
# Experimental: Demethyleneberberine hydrochloride crystals A, B, C and D are taken in an appropriate amount and the solubility of demethyleneberberine hydrochloride crystals A, B, C and D at different temperatures in a methanol system is studied respectively. 20 μl of sample is taken at each temperature node and detected by HPLC.
# [6] = Stability in strong light irradiation experiment (4,500 lx±500 lx); type: physicochemical
# Text: Demethyleneberberine hydrochloride crystals A, B, C and D are taken in an appropriate amount and placed in plates numbered as A3, B3, C3 and D3 respectively, and then the plates are placed in a strong light irradiation environment at 4,500 lx±500 lx respectively for stability test.
# [7] = Stability in high-humidity experiment (RH90±5%); type: physicochemical
# Text: Demethyleneberberine hydrochloride crystals A, B, C and D are taken in an appropriate amount and placed in plates numbered as A2, B2, C2 and D2 respectively, and then the plates are placed in a high-humidity environment at RH90±5% respectively for stability test.
# [8] = 60±2° C., day 0, listed as D1, hydrochloride
# [9] = 60±2° C., day 5, listed as D1, hydrochloride
# [10] = 60±2° C., day 10, listed as D1, hydrochloride
# [11] = day 0, listed as D3, hydrochloride
# [12] = day 5, listed as D3, hydrochloride
# [13] = day 10, listed as D3, hydrochloride
# [14] = day 0, listed as D2, hydrochloride
# [15] = day 5, listed as D2, hydrochloride
# [16] = day 10, listed as D2, hydrochloride
structure (smiles),measurement,setting,value
"COc1ccc2cc3[n+](cc2c1OC)CCc1cc(O)c(O)cc1-3 [crystal form D, demethyleneberberine hydrochloride]",AUC,[1]; calculated from the experimental results,3675 ng·h/mL
same,Cmax,[1],1234 ng/mL
same,tmax,[1],2 h
same,Solubility ranking among the four crystal forms,[2],solubility of crystal form A of demethyleneberberine hydrochloride>solubility of crystal form D
same,Solubility comparison of the four crystal forms (summary),"[3]; summary over water, methanol and ethanol systems",lowest; also recorded: solubility of crystal form A of demethyleneberberine hydrochloride>solubility of crystal form D
same,Solubility ranking among the four crystal forms,"[3]; water system, different temperatures, FIG. 13",solubility of crystal form A of demethyleneberberine hydrochloride>solubility of crystal form D
same,X-Ray Powder Diffraction,"[4]; 60±2° C., day 0",Unchanged
same,Content (%),[4]; [8],99.78%
same,Content of Relevant Substance (%),[4]; [8],0.22%
same,X-Ray Powder Diffraction,"[4]; 60±2° C., day 5",Unchanged
same,Content (%),[4]; [9],99.83%
same,Content of Relevant Substance (%),[4]; [9],0.17%
same,Content (%),[4]; [10],99.71%
same,Content of Relevant Substance (%),[4]; [10],0.29%
same,X-Ray Powder Diffraction,[4]; [10],Changed
same,Stability in the high-temperature environment,"[4]; 60±2° C., hydrochloride","unstable in the long-term high-temperature environment, and undergoes crystal transformation"
same,Stability under stability test conditions (summary),"[4]; summary over high temperature, high humidity and strong light irradiation, hydrochloride",tends to have crystal transformation under conditions such as high temperature and strong light irradiation
same,Solubility ranking among the four crystal forms,[5],solubility of crystal form A of demethyleneberberine hydrochloride>solubility of crystal form D
same,X-Ray Powder Diffraction,[6]; day 0,Unchanged
same,Content (%),[6]; [11],99.78%
same,Content of Relevant Substance (%),[6]; [11],0.22%
same,X-Ray Powder Diffraction,[6]; day 5,Unchanged
same,Content (%),[6]; [12],99.58%
same,Content of Relevant Substance (%),[6]; [12],0.42%
same,Content (%),[6]; [13],99.64%
same,Content of Relevant Substance (%),[6]; [13],0.36%
same,X-Ray Powder Diffraction,[6]; [13],Changed
same,Stability in the strong light irradiation environment,[6]; hydrochloride,"unstable in the long-term strong light irradiation environment, and undergoes crystal transformation"
same,Stability in the high-humidity environment,[7],relatively stable
same,X-Ray Powder Diffraction,[7]; day 0,Unchanged
same,Content (%),[7]; [14],99.48%
same,Content of Relevant Substance (%),[7]; [14],0.52%
same,X-Ray Powder Diffraction,[7]; day 5,Unchanged
same,Content (%),[7]; [15],99.41%
same,Content of Relevant Substance (%),[7]; [15],0.59%
same,X-Ray Powder Diffraction,[7]; day 10,Unchanged
same,Content (%),[7]; [16],99.32%
same,Content of Relevant Substance (%),[7]; [16],0.68%
